Measured values from article PMC9578396, “Intrinsic Antibacterial Activity of Xeruborbactam In Vitro: Assessing Spectrum and Mode of Action” (Antimicrobial Agents and Chemotherapy, 2022).
In brackets after ≈: the same amount, converted by molar mass. Read-outs that look alike come from different tables or passages of the source.

Tests used:
Type in all cases: cell-based
Enterococcus faecalis = test: MIC, Enterococcus faecalis
Source text: (§1) Bacterial isolates were subjected to broth microdilution susceptibility testing, performed according to Clinical and Laboratory Standards Institute (CLSI) methods ([46]), using panels prepared in-house. Meropenem was purchased from Sandoz, and all other antibiotics were from Sigma-Aldrich. Xeruborbactam was synthesized at Qpex Biopharma, San Diego, CA. Avibactam was purchased from eNovation Chemicals LLC, Bridgewater, NJ, USA; zidebactam was from MedKoo Biosciences, Inc., Morrisville, NC, and nacubactam was from Advanced ChemBlocks, Hayward, CA. Durlobactam was synthesized at Acme Bioscience, Palo Alto, CA, USA.

Staphylococcus aureus = test: MIC, Staphylococcus aureus (MSSA, MRSA)
Source text: as §1

Streptococcus pneumoniae = test: MIC, Streptococcus pneumoniae; settings: Streptococcus pneumoniae, read-out: MIC
Source text: as §1

Klebsiella pneumoniae = test: microbe, parasite or virus in culture; settings: Klebsiella pneumoniae
Source text: (§2) (i) Panels of engineered bacterial strains containing various combinations of porin and efflux mutations were used. The construction of all the strains used in the study is described in detail in references, [44], and [45]. (ii) KPC-producing clinical isolates and their derivatives that lost KPC plasmids were used also. These strains and their origins are described in the Table S2. (iii) Finally, KPC-producing clinical isolates enriched in strains with porin mutations were used. The mutations identified include various deletions, insertions, nonsense mutations, and decreased expression. Most of the isolates were obtained from JMI Laboratories or International Health Management Associates (IHMA); they were collected in the course of global surveillance studies.
as §1, with “Meropenem was purchased from Sandoz, and all other antibiotics were from Sigma-Aldrich.” left out

Escherichia coli = test: Broth microdilution MIC (CLSI), Escherichia coli; settings: Escherichia coli
Source text: as §2
as §1, with “Meropenem was purchased from Sandoz, and all other antibiotics were from Sigma-Aldrich.” left out

Pseudomonas aeruginosa = test: Broth microdilution MIC (CLSI), Pseudomonas aeruginosa; settings: Pseudomonas aeruginosa
Source text: as §2
as §1, with “Meropenem was purchased from Sandoz, and all other antibiotics were from Sigma-Aldrich.” left out

Acinetobacter baumannii = test: Broth microdilution MIC (CLSI), Acinetobacter baumannii; settings: Acinetobacter baumannii
Source text: as §2
as §1, with “Meropenem was purchased from Sandoz, and all other antibiotics were from Sigma-Aldrich.” left out

[1] = system: Enterobacter cloacae species complex; test: Broth microdilution MIC (CLSI), Enterobacter cloacae; settings: Enterobacter cloacae, read-out: MIC
Source text: as §1

Compound: C[C@H]1COc2c(N3CCN(C)CC3)c(F)cc3c(=O)c(C(=O)O)cn1c23 [Levofloxacin]
- MIC (Enterococcus faecalis; efs003): 0.5 µg/mL (≈ 1.38 µM)
- MIC (Enterococcus faecalis; efs004): 1 µg/mL (≈ 2.77 µM)
- MIC (Enterococcus faecalis; efs005): 1 µg/mL (≈ 2.77 µM)
- MIC (Enterococcus faecalis; efs006): 1 µg/mL (≈ 2.77 µM)
- MIC (Enterococcus faecalis; efs007): 1 µg/mL (≈ 2.77 µM)
- MIC (Enterococcus faecalis; efs026): 0.5 µg/mL (≈ 1.38 µM)
- MIC (Enterococcus faecalis; efs071): 32 µg/mL (≈ 88.6 µM)
- MIC (Enterococcus faecalis; efs072): 16 µg/mL (≈ 44.3 µM)
- MIC (Enterococcus faecalis; efs073): 1 µg/mL (≈ 2.77 µM)
- MIC (Enterococcus faecalis; efs090): 32 µg/mL (≈ 88.6 µM)
- MIC (Enterococcus faecalis; efs091): 32 µg/mL (≈ 88.6 µM)
- MIC (Enterococcus faecalis; efs092): 32 µg/mL (≈ 88.6 µM)
- MIC (Enterococcus faecalis; efs093): 16 µg/mL (≈ 44.3 µM)
- MIC (Enterococcus faecalis; efs094): 32 µg/mL (≈ 88.6 µM)
- MIC (Enterococcus faecalis; efs095): 2 µg/mL (≈ 5.53 µM)
- MIC (Enterococcus faecalis; efs096): 32 µg/mL (≈ 88.6 µM)
- MIC (Staphylococcus aureus; Staphylococcus aureus, ATCC 29213 / MSSA): 0.125 µg/mL (≈ 0.346 µM)
- MIC (Staphylococcus aureus; Staphylococcus aureus, MRSA): 0.125 µg/mL (≈ 0.346 µM)
- MIC (Staphylococcus aureus; Staphylococcus aureus, MRSA, sa001, MRSA, read-out: MIC): 8 µg/mL (≈ 22.1 µM)
- MIC (Staphylococcus aureus; Staphylococcus aureus, MRSA, sa010, MRSA, read-out: MIC): 8 µg/mL (≈ 22.1 µM)
- MIC (Staphylococcus aureus; Staphylococcus aureus, MRSA, sa013, MRSA, read-out: MIC): 0.25 µg/mL (≈ 0.692 µM)
- MIC (Staphylococcus aureus; Staphylococcus aureus, MRSA, sa148, MRSA, read-out: MIC): 16 µg/mL (≈ 44.3 µM)
- MIC (Staphylococcus aureus; Staphylococcus aureus, MRSA, sa150, MRSA, read-out: MIC): 8 µg/mL (≈ 22.1 µM)
- MIC (Staphylococcus aureus; Staphylococcus aureus, MRSA, sa151, MRSA, read-out: MIC): 16 µg/mL (≈ 44.3 µM)
- MIC (Staphylococcus aureus; Staphylococcus aureus, MRSA, sa153, MRSA, read-out: MIC): 16 µg/mL (≈ 44.3 µM)
- MIC (Staphylococcus aureus; Staphylococcus aureus, MRSA, sa278, MRSA, read-out: MIC): 32 µg/mL (≈ 88.6 µM)
- MIC (Staphylococcus aureus; Staphylococcus aureus, MRSA, sa279, MRSA, read-out: MIC): 2 µg/mL (≈ 5.53 µM)
- MIC (Staphylococcus aureus; Staphylococcus aureus, MRSA, sa280, MRSA, read-out: MIC): 2 µg/mL (≈ 5.53 µM)
- MIC (Staphylococcus aureus; Staphylococcus aureus, MRSA, sa281, MRSA, read-out: MIC): 32 µg/mL (≈ 88.6 µM)
- MIC (Staphylococcus aureus; Staphylococcus aureus, MSSA): 0.125 µg/mL (≈ 0.346 µM)
- MIC (Staphylococcus aureus; Staphylococcus aureus, MSSA, sa006, MSSA, read-out: MIC): 0.06 µg/mL (≈ 0.166 µM)
- MIC (Staphylococcus aureus; Staphylococcus aureus, MSSA, sa008, MSSA, read-out: MIC): 0.25 µg/mL (≈ 0.692 µM)
- MIC (Staphylococcus aureus; Staphylococcus aureus, MSSA, sa011, MSSA, read-out: MIC): 0.25 µg/mL (≈ 0.692 µM)
- MIC (Staphylococcus aureus; Staphylococcus aureus, MSSA, sa012, MSSA, read-out: MIC): 0.25 µg/mL (≈ 0.692 µM)
- MIC (Staphylococcus aureus; sa002, MSSA): 0.125 µg/mL (≈ 0.346 µM)
- MIC (Staphylococcus aureus; sa003, MSSA): 0.125 µg/mL (≈ 0.346 µM)
- MIC (Staphylococcus aureus; sa004, MSSA): 0.125 µg/mL (≈ 0.346 µM)
- MIC (Staphylococcus aureus; sa005, MSSA): 0.125 µg/mL (≈ 0.346 µM)
- MIC (Staphylococcus aureus; sa007, MSSA): 0.125 µg/mL (≈ 0.346 µM)
- MIC (Staphylococcus aureus; sa009, MSSA): 0.125 µg/mL (≈ 0.346 µM)
- MIC (Staphylococcus aureus; sa152, MRSA): 0.125 µg/mL (≈ 0.346 µM)
- MIC (Streptococcus pneumoniae; sp001): 0.5 µg/mL (≈ 1.38 µM)
- MIC (Streptococcus pneumoniae; sp002): 0.5 µg/mL (≈ 1.38 µM)
- MIC (Streptococcus pneumoniae; sp003): 1 µg/mL (≈ 2.77 µM)
- MIC (Streptococcus pneumoniae; sp004): 1 µg/mL (≈ 2.77 µM)
- MIC (Streptococcus pneumoniae; sp005): 0.5 µg/mL (≈ 1.38 µM)
- MIC (Streptococcus pneumoniae; sp006): 0.5 µg/mL (≈ 1.38 µM)
- MIC (Streptococcus pneumoniae; sp007): 1 µg/mL (≈ 2.77 µM)
- MIC (Streptococcus pneumoniae; sp008): 0.5 µg/mL (≈ 1.38 µM)
- MIC (Streptococcus pneumoniae; sp009): 1 µg/mL (≈ 2.77 µM)
- MIC (Streptococcus pneumoniae; sp117): 2 µg/mL (≈ 5.53 µM)
- MIC (Streptococcus pneumoniae; sp118): 1 µg/mL (≈ 2.77 µM)
- MIC (Streptococcus pneumoniae; sp119): 1 µg/mL (≈ 2.77 µM)
- MIC (Streptococcus pneumoniae; sp120): 1 µg/mL (≈ 2.77 µM)
- MIC (Streptococcus pneumoniae; sp121): 1 µg/mL (≈ 2.77 µM)
- MIC (Streptococcus pneumoniae; sp122): 32 µg/mL (≈ 88.6 µM)
- MIC (Streptococcus pneumoniae; sp123): 0.5 µg/mL (≈ 1.38 µM)
- MIC (Streptococcus pneumoniae; sp125): 1 µg/mL (≈ 2.77 µM)
- MIC (Streptococcus pneumoniae; sp126): 1 µg/mL (≈ 2.77 µM)
- MIC (Klebsiella pneumoniae; strain KPM1026a, read-out: MIC): 0.06 µg/mL

Compound: NCCONC(=O)[C@@H]1CC[C@@H]2CN1C(=O)N2OS(=O)(=O)O [Nacubactam]
- MIC (Klebsiella pneumoniae; strain KPM1026a, wild type, read-out: MIC): 8 µg/mL
- MIC (Klebsiella pneumoniae; strain KPM1027, ramR, read-out: MIC): 4 µg/mL
- MIC (Klebsiella pneumoniae; strain KPM1171, ramR ompK36_1171, read-out: MIC): > 64 µg/mL
- MIC (Klebsiella pneumoniae; strain KPM2040, ompK36_2040, read-out: MIC): > 64 µg/mL
- MIC (Klebsiella pneumoniae; strain KPM2600, ΔompK35): 8 µg/mL
- MIC (Klebsiella pneumoniae; strain KPM2613, ΔompK35 ompK36_2040): > 64 µg/mL
- MIC (Klebsiella pneumoniae; strain KPM2696, ΔacrB): 2 µg/mL
- MIC (Escherichia coli; strain ECM5497, wild type, read-out: MIC): 4 µg/mL
- MIC (Escherichia coli; strain ECM6001, ΔacrB): 4 µg/mL
- MIC (Escherichia coli; strain ECM6502, marR (AcrAB overexpression)): 2 µg/mL
- MIC (Pseudomonas aeruginosa; strain PAM1020, wild type, read-out: MIC): 128 µg/mL
- MIC (Pseudomonas aeruginosa; strain PAM1032, nalB (MexAB-OprM overexpression)): 128 µg/mL
- MIC (Pseudomonas aeruginosa; strain PAM1033, nfxB (MexCD-OprJ overexpression)): 32 µg/mL
- MIC (Pseudomonas aeruginosa; strain PAM1034, nfxC (MexEF-OprN overexpression)): 128 µg/mL
- MIC (Pseudomonas aeruginosa; strain PAM1106, mexA::Tet): 128 µg/mL
- MIC (Pseudomonas aeruginosa; strain PAM1154, oprM::Hg): 128 µg/mL
- MIC (Acinetobacter baumannii; strain AB1007, wild type, read-out: MIC): > 256 µg/mL
- MIC (Acinetobacter baumannii; strain ACM1013, ΔadeIJK): > 256 µg/mL
- MIC (Acinetobacter baumannii; strain ACM1014, ΔadeABC): > 256 µg/mL
- MIC (Acinetobacter baumannii; strain ACM1015, ΔadeIJK ΔadeABC): > 256 µg/mL
- MIC (Acinetobacter baumannii; strain ACM1027, adeN (AdeIJK overexpression)): > 256 µg/mL
- MIC (Acinetobacter baumannii; strain ACM1030, adeS (AdeABC overexpression)): > 256 µg/mL

Compound: CN(C)c1cc(NC(=O)CNC(C)(C)C)c(O)c2c1C[C@H]1C[C@H]3[C@H](N(C)C)C(O)=C(C(N)=O)C(=O)[C@@]3(O)C(O)=C1C2=O [Tigecycline]
- MIC ([1]; clinical isolate ECL1057, OmpK35 FN, OmpK36 NF): 8 µg/mL (≈ 13.7 µM)
- MIC ([1]; clinical isolate ECL1079, OmpK35 NF, OmpK36 NF): 4 µg/mL (≈ 6.83 µM)
- MIC ([1]; clinical isolate ECL1126, OmpK35 FN, OmpK36 FN): 2 µg/mL (≈ 3.41 µM)
- MIC ([1]; clinical isolate ECL1131, OmpK35 NF, OmpK36 FN): 2 µg/mL (≈ 3.41 µM)
- MIC (Klebsiella pneumoniae; clinical isolate KP1004, OmpK35 NF, OmpK36 FN, read-out: MIC): 1 µg/mL
- MIC (Klebsiella pneumoniae; clinical isolate KP1070, OmpK35 NF, OmpK36 FN, read-out: MIC): 1 µg/mL
- MIC (Klebsiella pneumoniae; clinical isolate KP1074, OmpK35 NF, OmpK36 PFN (GD), read-out: MIC): 0.5 µg/mL
- MIC (Klebsiella pneumoniae; clinical isolate KP1093, OmpK35 NF, OmpK36 PFN (GD), read-out: MIC): 1 µg/mL
- MIC (Klebsiella pneumoniae; clinical isolate KP1251, OmpK35 NF, OmpK36 FN, read-out: MIC): 1 µg/mL
- MIC (Klebsiella pneumoniae; clinical isolate KP1274, OmpK35 FN, OmpK36 FN, read-out: MIC): 1 µg/mL
- MIC (Klebsiella pneumoniae; clinical isolate KP1463, OmpK35 NF, OmpK36 NF, read-out: MIC): 1 µg/mL
- MIC (Klebsiella pneumoniae; clinical isolate KP1469, OmpK35 NF, OmpK36 NF, read-out: MIC): 4 µg/mL
- MIC (Klebsiella pneumoniae; clinical isolate KP1598, OmpK35 NF, OmpK36 PFN (GD), read-out: MIC): 4 µg/mL
- MIC (Escherichia coli; clinical isolate EC1078, OmpK35 NF, OmpK36 NF, read-out: MIC): 0.5 µg/mL
- MIC (Escherichia coli; clinical isolate EC1081, OmpK35 FN, OmpK36 FN, read-out: MIC): 0.5 µg/mL
- MIC (Escherichia coli; clinical isolate EC1085, OmpK35 FN, OmpK36 FN, read-out: MIC): 0.25 µg/mL
- MIC (Escherichia coli; clinical isolate EC1088, OmpK35 FN, OmpK36 FN, read-out: MIC): 0.125 µg/mL
- MIC (Escherichia coli; clinical isolate EC1097, OmpK35 FN, OmpK36 FN, read-out: MIC): 1 µg/mL
- MIC (Escherichia coli; clinical isolate EC1098, OmpK35 NF, OmpK36 FN, read-out: MIC): 1 µg/mL
- MIC (Escherichia coli; clinical isolate EC1119, OmpK35 NF, OmpK36 NF, read-out: MIC): 4 µg/mL
- MIC (Escherichia coli; clinical isolate EC1121, OmpK35 NF, OmpK36 FN, read-out: MIC): 0.25 µg/mL
